The source of these data is US20210379106A1, “OXABICYCLOHEPTANES FOR ENHANCING CAR T CELL FUNCTION” (Lixte Biotechnology, Inc., priority 2018, published 2021).

The target in one data set is PP2A (Homo sapiens, UniProt P67775). The settings on record: cited from earlier work.
In data set [1] the test system is cell lines from a variety of human solid tumors. As to conditions: cited from earlier work.
The next data set relates to CD19 CAR T cells. In words: IFNγ intracellular staining / flow cytometry of CD19CAR T cells after co-culture with CD19+ tumor cells. The settings on record: for percentage of CAR+/CD8+/INFγ+: 0.5 μM LB-100, 1.0 μg/mL Nivo. The format is cell-based. On the procedure: FIG. 1. Generation of CD19 CAR T cells PBMC from healthy donor were activated with CD3/CD28 beads and transduced with lentivirus encoding second generation of CD19CAR containing costimulatory signaling CD28. After 14 days of ex vivo expansion, percentages of CD8 and CAR positive T cells were determined by flow cytometry.
FIG. 2. […] Post treatment, 0.1×10^6 CD19 CART cells were then co-cultured with 0.1×10^6 different CD19+ tumor cells for 24 hours followed by surface staining of CAR and CD8 and intracellular staining of IFN-γ. Percentages of IFNγ+CD8+ CAR T cells in gated CAR positive population are presented.
FIG. 3. […] Post treatment, 0.1×10^6 CD19CAR T cells were then co-cultured with 0.1×10^6 CD19+Daudi lymphoma cells for 24 hours followed by surface staining of CAR and CD8 and intracellular staining of IFN-γ. Percentages of IFN-γ+CD8+ CAR T cells (A) and FACS plots (B) in gated CAR positive population are presented.
FIG. 4. […] Post treatment, 0.1×10^6 CD19CAR T cells were then co-cultured with 0.1×10^6 different CD19+ tumor cells for 24 hours followed by surface staining of CAR and CD8 and intracellular staining of IFN-γ. Myeloid leukemic cells (KG1a) were used as negative control. Percentages of IFN-γ+CD8+ CAR T cells in gated CAR positive population are presented.
We assessed the effects of LB-100 and Nivo on CD19 CART cell function. Propagated CD19CAR T cells were stimulated with dynal beads coated with antibody against CD19 (FMC63) at 1:1 ratio for five days and cultured under the following conditions: CD19CAR T cell alone, CD19CAR+ 0.5 μM LB-100, CD19CAR+ 1.0 μg/mL Nivo, and CD19CAR with combination of LB-100 and Nivo. Drugs were supplemented into the culture every other day. Functional assay was performed six days after treatment. The cells were then co-cultured with the different CD19+ ALL cells SupB15 and different lymphoma Daudi and Raji cells overnight. Cells were then stained for Interferon-gamma (IFNγ) followed by flow cytometry analysis. Acute myeloid leukemia (AML) cells KG1a were used as negative controls. […] To test the antitumor activity of the combinatorial therapy in vivo we established an acute lymphoid leukemia (ALL) model by inoculating SupB15-GFP-ffluc cells into NSG mice, 5 days after tumor engraftment, mice were treated with CD19CAR T cells by intravenous injection, along with intraperitoneally injections of LB100 (4 μg/mouse), Nivo (200 μgm/mouse) or LB100+Nivo every other day as combination therapy.

The next data set has as its system solid tumor. The settings on record: largest phase 1 trial, cited from earlier work.

Sequence of PP2A (P67775 whole entry): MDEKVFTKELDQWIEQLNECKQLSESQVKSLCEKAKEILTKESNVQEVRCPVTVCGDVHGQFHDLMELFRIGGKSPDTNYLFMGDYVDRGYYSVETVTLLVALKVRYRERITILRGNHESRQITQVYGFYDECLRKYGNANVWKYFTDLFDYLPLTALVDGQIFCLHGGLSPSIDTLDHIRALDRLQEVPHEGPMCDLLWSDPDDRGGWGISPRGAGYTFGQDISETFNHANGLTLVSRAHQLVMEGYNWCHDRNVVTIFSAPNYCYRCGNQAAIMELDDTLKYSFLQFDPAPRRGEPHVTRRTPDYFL

Turning to `C[C@@]12C(=O)OC(=O)[C@]1(C)[C@H]1CC[C@@H]2O1` [Cantharidin], the “inhibition of PP2A” value at PP2A is recorded as “potent inhibitor of PP2A”.

Regarding `CN1CCN(C(=O)C2C(C(=O)O)[C@H]3CC[C@@H]2O3)CC1` (stereo partly shown) [LB-100], in data set [1], the “proliferation of cell lines” value is “inhibit proliferation”. In addition, the “inhibition of PP2A” value on PP2A was “potent inhibitor of PP2A”. The “effector function of CD19CAR T cells (IFNγ+CD8+ CAR T cells)” value with CD19 CAR T cells (FIG. 2, CD19 antibody coated beads, different concentrations of LB100 on days 1, 3 and 5, different CD19+ tumor cells 24 hours) was “improves effector function of CD19CAR T cells in a dose dependent manner”. Moreover, the “percentage of CAR+/CD8+/INFγ+” value in the data set with CD19 CAR T cells (co-cultured with Daudi cells overnight, CD19 antibody bead stimulation) amounted to 10.99%; in the data set with CD19 CAR T cells (co-cultured with Raji cells overnight, CD19 antibody bead stimulation) it was 10.30%; with CD19 CAR T cells (co-cultured with SupB15 cells overnight, CD19 antibody bead stimulation), 10.14%; with CD19 CAR T cells (corresponding treatment, co-cultured with KG1A AML cells (negative control)), 6.33%; in the data set with CD19 CAR T cells (corresponding treatment, media alone (no tumor cells)) it was 7.28%.

On to `CCN1CCCC1CNC(=O)c1cc(S(=O)(=O)CC)c(NC)cc1OC` (stereo not shown) [LB-102], for which, in data set [1], the “proliferation of cell lines” value is “inhibit proliferation”.

For `C[C@@](O)(/C=C/[C@H]1CC=CC(=O)O1)[C@@H](C[C@@H](O)\C=C/C=C\C=C\CO)OP(=O)(O)O` [fostriecin, Fostriecin], the “dose-limiting toxicity (DLT)” value with solid tumor (46 solid tumor patients) was “without dose-limiting toxicity”. For the same compound, the “disease stability, share of solid tumor patients” value in the data set with solid tumor (16 of 46 patients) was 34.8%.

With `O=C1OC(=O)[C@H]2[C@@H]1[C@@H]1CC[C@H]2O1` [norcantharidin], on PP2A, the “inhibition of PP2A” value is recorded as “potent inhibitorsof PP2A”.
